Assays:
Assay type in all cases: physicochemical
[1] = Water solubility of the crystal forms; details: Table 2 data
[2] = Dynamic vapor sorption (DVS), hygroscopicity; details: for DVS gain: 0-90% RH; for Hygroscopicity (from DVS weight gain): DVS data of Table 2
Text: Dynamic Vapor Sorption (Allentown, Pa.) was used to measure the hygroscopicity of the anhydrate and monohydrate of the invention (see FIGS. 6 and 7). The step conditions were three hours each at 0%, 30%, 52.5%, 75% and 90% RH, two full cycles.

[3] = Stability studies, short term (XRPD)
[4] = Stability studies, medium term (XRPD and TGA)
Description: Samples of monohydrate were stored at room temperature, 56° C., and 70° C. for one week. At room temperature, humidity was maintained at 0% RH. Humidity was not controlled for the higher temperatures.
The samples were analyzed by XRPD and TGA.

[5] = Stability studies, long term (XRPD, TGA, HPLC); details: non-micronized, three months
Description: Non-micronized samples of monohydrate and anhydrate were stored at 40° C./75% RH for three months. The monohydrate was also stored at 40° C. without humidity control. During the three months, the samples were checked after two weeks, one month, two months, and three months.

[6] = Stability, separate study of micronized and non-micronized anhydrate (XRPD)
[7] = 40° C. without humidity control

SMILES | Water solubility compared between the two forms [1] | DVS gain [2] | Hygroscopicity (from DVS weight gain) [2] | Stability of crystal form (XRPD) ([3]; 70° C. for one hour) | Stability of crystal form (XRPD) ([3]; 90° C. after one half hour) | Stability of crystal form (XRPD) ([3]; 90° C. after one hour) | Dehydration on storage (XRPD and TGA) ([4]; 56° C., humidity not controlled, one week) | Dehydration on storage (XRPD and TGA) ([4]; 70° C., humidity not controlled, after 1 day) | Dehydration on storage (XRPD and TGA) ([4]; 70° C., humidity not controlled, after 4 days) | Dehydration on storage (XRPD and TGA) ([4]; 70° C., humidity not controlled, after 7 days) | Dehydration on storage (XRPD and TGA) ([4]; room temperature, 0% RH, one week) | Chemical stability (HPLC) [5, 7] | Transformation of crystal form (XRPD and TGA) [5, 7] | Chemical stability (HPLC) ([5]; 40° C./75% RH) | Transformation of crystal form (XRPD and TGA) ([5]; 40° C./75% RH) | Transformation to the monohydrate (XRPD) ([6]; micronized, 25° C./60% RH, three months) | Transformation to the monohydrate (XRPD) ([6]; micronized, 40° C./75% RH, one month) | Transformation to the monohydrate (XRPD) ([6]; non-micronized, 40° C./75% RH)
C=Cc1cc(O)cc2nc(-c3ccc(O)c(F)c3)oc12 [Monohydrate, 2-(3-fluoro-4-hydroxyphenyl)-7-vinyl-1,3-benzoxazol-5-ol] | significantly lower solubility than the anhydrate | 0.1% gain (0-90% RH) | largely non-hygroscopic | stable | partially dehydrated | completely dehydrated | no obvious dehydration | no obvious hydration | partially dehydrated | mostly dehydrated | no obvious dehydration | chemically stable | did not transform | chemically stable | did not transform | – | – | –
C=Cc1cc(O)cc2nc(-c3ccc(O)c(F)c3)oc12 [Anhydrate, 2-(3-fluoro-4-hydroxyphenyl)-7-vinyl-1,3-benzoxazol-5-ol] | – | 0.2% gain (0-90% RH) | largely non-hygroscopic | – | – | – | – | – | – | – | – | – | – | chemically stable | did not transform | did not transform to the monohydrate | partially transform to the monohydrate | did not show any obvious transformation

Source: US7683182B2, “Crystal forms of 2-(3-fluoro-4-hydroxyphenyl)-7-vinyl-1,3-benzoxazol-5-ol” (Wyeth LLC, priority 2005, dated 2010)
